Experimental data taken from ChEMBL document CHEMBL1201862, “PubChem BioAssay data set” (2004).
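48-hour exposure; five concentrations; linearly interpolated endpoints. GI50 = concentration required for 50% inhibition of growth.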 Active and inactive are the calls of the source. No stated cut-off is given here; in the data, active = GI50 up to about 1.1 µM and inactive = higher.

Legend:
Assay in all cases: DTP human tumour cell line panel, 48 h
HL-60 = system: HL-60
HOP-92 = system: HOP-92
A549 = system: A549
CCRF-CEM = system: CCRF-CEM
SF-268 = system: SF-268
OVCAR-4 = system: OVCAR-4
SK-MEL-2 = system: SK-MEL-2
UACC-62 = system: UACC-62
SK-MEL-28 = system: SK-MEL-28
SF-295 = system: SF-295
TK-10 = system: TK-10
KM12 = system: KM12
RPMI-8226 = system: RPMI-8226
U-251 = system: U-251

Measured: GI50

Cc1cc(Cl)ccc1NC(=O)C(=O)Cc1nc2ccc(C(=O)c3ccccc3)cc2nc1O
inactive: HL-60 99.5 µM | HOP-92 20.4 µM | A549 75.3 µM | CCRF-CEM 35.6 µM | SF-268 > 100 µM | OVCAR-4 > 100 µM | SK-MEL-2 > 100 µM | UACC-62 70 µM | SK-MEL-28 > 100 µM | SF-295 95.1 µM | TK-10 > 100 µM | KM12 42.5 µM

O=C(Nc1cc(Cl)ccc1Cl)c1cc2cccc(Br)c2oc1=O
inactive: HL-60 > 100 µM | RPMI-8226 > 100 µM | A549 > 100 µM | CCRF-CEM > 100 µM | U-251 70.5 µM | SK-MEL-2 > 100 µM | UACC-62 > 100 µM | SK-MEL-28 > 100 µM | SF-295 63.4 µM | TK-10 > 100 µM | KM12 > 100 µM

CCCCNC(=S)OCCC(C)CCCC(C)C (stereo not drawn)
inactive: HL-60 > 100 µM | RPMI-8226 > 100 µM | A549 > 100 µM | CCRF-CEM > 100 µM | SF-268 > 100 µM | OVCAR-4 > 100 µM | U-251 > 100 µM | SK-MEL-2 > 100 µM | UACC-62 > 100 µM | SK-MEL-28 87.9 µM | SF-295 > 100 µM | TK-10 > 100 µM | KM12 > 100 µM

N#CCCN(c1ccc(/C=C2\N=C(Cc3ccccc3)OC2=O)cc1)S(=O)(=O)c1ccccc1
inactive: HL-60 > 100 µM | RPMI-8226 > 100 µM | A549 > 100 µM | CCRF-CEM > 100 µM | SF-268 > 100 µM | U-251 > 100 µM | SK-MEL-2 > 100 µM | UACC-62 > 100 µM | SK-MEL-28 > 100 µM | SF-295 > 100 µM | TK-10 > 100 µM | KM12 > 100 µM

C/C(=N\N(C)C)c1sc(-n2nc(-c3ccccc3)cc2-c2ccccc2)nc1C
inactive: HL-60 > 100 µM | HOP-92 61.9 µM | A549 > 100 µM | CCRF-CEM > 100 µM | SF-268 > 100 µM | OVCAR-4 > 100 µM | U-251 91.6 µM | SK-MEL-2 > 100 µM | UACC-62 > 100 µM | SK-MEL-28 > 100 µM | SF-295 51.2 µM | TK-10 72.8 µM | KM12 > 100 µM

COc1ccc(-n2/c(=N/C(=S)N(C)C)ss/c2=N\C(=S)N(C)C)cc1
inactive: HL-60 17 µM | RPMI-8226 21 µM | A549 > 100 µM | SF-268 77.1 µM | OVCAR-4 4.7 µM | U-251 25.6 µM | SK-MEL-2 46.9 µM | UACC-62 4.21 µM | SK-MEL-28 9.35 µM | SF-295 68.4 µM | TK-10 > 100 µM | KM12 95.7 µM
